This data set in a line: molar enthalpy of vaporization or sublimation. The following applies: 298.15 K; Crystal; drop microcalorimetry.

The structures appear in SMILES notation. ± gives the expanded uncertainty stated by the source.

`Cc1cc(=O)cc(C)o1` [2,6-dimethyl-γ-pyrone]: the molar enthalpy came out at 20.7 ± 0.717 kcal/mol.
For `CCc1occc(=O)c1O` [2-ethyl-3-hydroxy-4H-pyran-4-one], the molar enthalpy came to 21.8 ± 0.956 kcal/mol.

Values taken from the NIST ThermoML archive (doi:10.1016/j.jct.2011.02.021).
